Key:
[1] = test system: B16-F10, A549, rabbit smooth muscle and bovine aortic endothelial cells; test: Cell adhesion assay, summary over the four cell types of Table II; assay type: cell-based; settings: for Cell attachment compared to TSP, range over four cell types: text summary of Table II
[2] = test system: B16-F10 mouse melanoma cells in C57BL/6 mouse; test: Tumor cell metastasis assay; assay type: in vivo; settings: compared with buffer control
[3] = Heparin binding activity; settings: data not shown
[4] = Oxidative stability of peptide in solution; assay type: physicochemical
[5] = test system: human platelets; test: ADP-induced platelet aggregation in platelet-rich plasma; assay type: cell-based; settings: ADP for 5 min, 500 ug/ml peptide; buffer control more than 1,000 per clump

## CSTSCR
[1]
  Cell attachment compared to TSP, range over four cell types: 39-104%

## Cyclic CSVTCG (disulfide)
[1]
  Cell adhesive activity (in words): approximately to the same extent as CSVTCG

## ANKHYF [reference compound]
[2]
  Effect on lung tumor colony formation (in words): no significant effect
[1]
  Cell adhesive activity (in words): little or no significant cell adhesive activity

## VCTGSC [reference compound]
[1]
  Cell adhesive activity (in words): little or no significant cell adhesive activity

## CSVTCR
[1]
  Cell attachment compared to TSP, range over four cell types: 90-159%

## CRVTCG
[3]
  Heparin binding activity: possessed heparin binding activity

## TCVCGS [reference compound]
[2]
  Effect on lung tumor colony formation (in words): no significant effect
[1]
  Cell adhesive activity (in words): little or no significant cell adhesive activity

## CSVTCG
[1]
  Cell attachment compared to TSP, range over four cell types: 29-49%
[4]; multimers with apparent molecular weights of 2,000 on SDS-gels
  Oxidation in solution (in words): slowly oxidized in solution
[4]; peptide in solution, oxidation of cysteine thiols
  Time for which freshly prepared solutions were stable: at least 2 h
[3]
  Heparin binding activity: did not
[5]
  Platelets per clump: 10-50 platelets per clump

## TSP: 450,000-dalton glycoprotein secreted by platelets, purified from activated platelets
[1]; TSP-coated microtiter wells
  Number of adherent cells representing 100% adhesion: 500 adherent cells per min'

Source: publication PMC2289263 (The Journal of Cell Biology, 1992)
